Assay results: paper PMC2950128, “Protein Evolution by Molecular Tinkering: Diversification of the Nuclear Receptor Superfamily from a Ligand-Dependent Ancestor” (PLoS Biology, 2010)

Molecular target: T1, AqNR1-LBD (Amphimedon queenslandica, UniProt B1A9Z2)
T1 construct: fusion kept for serum incubation), E. coli BL21(DE3) pLysS
Test: lipid extraction and negative-ion ESI/MS of purified LBD
Format: binding
Settings: co-purified from E. coli (also after complete serum); identified by mass as 18:0, chain isomer not told

T1 sequence (B1A9Z2 entry or part of it): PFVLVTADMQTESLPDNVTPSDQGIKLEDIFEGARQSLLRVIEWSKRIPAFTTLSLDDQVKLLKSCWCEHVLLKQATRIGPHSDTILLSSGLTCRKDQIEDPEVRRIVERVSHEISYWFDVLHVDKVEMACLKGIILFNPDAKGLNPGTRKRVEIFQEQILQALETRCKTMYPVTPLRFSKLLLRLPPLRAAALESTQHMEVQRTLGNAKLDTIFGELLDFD

CCCCCCCCCCCCCCCCCC(=O)O [18∶0 fatty acid]
lipid extraction and negative-ion ESI/MS of purified LBD: bound an array of bacterial free fatty acids (FAs)
